# Laboratory results reported in the kinase profiling compilation of Christmann-Franck et al. (2016).
# Several values for one entry are separate records, joined by “and”; a condition that tells them apart may be missing. Equal values may be shown once.
# How the values were obtained:
# Assay in all cases: Caliper, Mobility shift assay off-chip
# AURKC (human) = AURKC (human) (UniProt Q9UQB9)
# CAMK1D (human) = CAMK1D (human) (UniProt Q8IU85)
# CDK4 (human) = CDK4 (human) (UniProt P11802); conditions: compound 0.2 µM
# CHEK2 (human) = CHEK2 (human) (UniProt O96017)
# Sequence of CHEK2 (human) (O96017 whole entry, looked up): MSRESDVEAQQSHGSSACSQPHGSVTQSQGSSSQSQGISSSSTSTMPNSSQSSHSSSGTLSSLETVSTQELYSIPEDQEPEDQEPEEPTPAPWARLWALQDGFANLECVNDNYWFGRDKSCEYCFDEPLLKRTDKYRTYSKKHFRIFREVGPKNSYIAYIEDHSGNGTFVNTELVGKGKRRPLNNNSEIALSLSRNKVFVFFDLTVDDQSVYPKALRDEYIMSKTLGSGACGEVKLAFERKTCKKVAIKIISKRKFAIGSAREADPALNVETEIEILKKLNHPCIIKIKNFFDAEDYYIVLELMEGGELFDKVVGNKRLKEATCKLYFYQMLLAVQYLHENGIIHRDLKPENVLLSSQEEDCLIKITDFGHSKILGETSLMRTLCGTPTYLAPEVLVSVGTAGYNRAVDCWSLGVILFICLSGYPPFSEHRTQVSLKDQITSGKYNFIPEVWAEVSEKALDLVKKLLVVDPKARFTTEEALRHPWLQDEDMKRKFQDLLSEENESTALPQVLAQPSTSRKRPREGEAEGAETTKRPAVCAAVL
# CLK1 (human) = CLK1 (human) (UniProt P49759)
# CSNK1D (human) = CSNK1D (human) (UniProt P48730)
# Sequence of CSNK1D (human) (P48730 whole entry, looked up): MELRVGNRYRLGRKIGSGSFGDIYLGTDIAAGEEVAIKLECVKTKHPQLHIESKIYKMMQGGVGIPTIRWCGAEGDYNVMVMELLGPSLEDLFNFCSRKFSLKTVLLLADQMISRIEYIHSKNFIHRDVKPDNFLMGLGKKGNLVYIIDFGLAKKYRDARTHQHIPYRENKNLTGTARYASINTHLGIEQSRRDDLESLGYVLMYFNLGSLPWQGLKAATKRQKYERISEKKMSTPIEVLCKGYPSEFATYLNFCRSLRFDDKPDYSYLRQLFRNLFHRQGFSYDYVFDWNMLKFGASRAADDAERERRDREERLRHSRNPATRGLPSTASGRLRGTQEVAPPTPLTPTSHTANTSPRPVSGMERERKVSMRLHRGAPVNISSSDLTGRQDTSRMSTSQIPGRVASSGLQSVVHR
# FLT3 (human) = FLT3 (human) (UniProt P36888)
# Sequence of FLT3 (human) (P36888 whole entry, looked up): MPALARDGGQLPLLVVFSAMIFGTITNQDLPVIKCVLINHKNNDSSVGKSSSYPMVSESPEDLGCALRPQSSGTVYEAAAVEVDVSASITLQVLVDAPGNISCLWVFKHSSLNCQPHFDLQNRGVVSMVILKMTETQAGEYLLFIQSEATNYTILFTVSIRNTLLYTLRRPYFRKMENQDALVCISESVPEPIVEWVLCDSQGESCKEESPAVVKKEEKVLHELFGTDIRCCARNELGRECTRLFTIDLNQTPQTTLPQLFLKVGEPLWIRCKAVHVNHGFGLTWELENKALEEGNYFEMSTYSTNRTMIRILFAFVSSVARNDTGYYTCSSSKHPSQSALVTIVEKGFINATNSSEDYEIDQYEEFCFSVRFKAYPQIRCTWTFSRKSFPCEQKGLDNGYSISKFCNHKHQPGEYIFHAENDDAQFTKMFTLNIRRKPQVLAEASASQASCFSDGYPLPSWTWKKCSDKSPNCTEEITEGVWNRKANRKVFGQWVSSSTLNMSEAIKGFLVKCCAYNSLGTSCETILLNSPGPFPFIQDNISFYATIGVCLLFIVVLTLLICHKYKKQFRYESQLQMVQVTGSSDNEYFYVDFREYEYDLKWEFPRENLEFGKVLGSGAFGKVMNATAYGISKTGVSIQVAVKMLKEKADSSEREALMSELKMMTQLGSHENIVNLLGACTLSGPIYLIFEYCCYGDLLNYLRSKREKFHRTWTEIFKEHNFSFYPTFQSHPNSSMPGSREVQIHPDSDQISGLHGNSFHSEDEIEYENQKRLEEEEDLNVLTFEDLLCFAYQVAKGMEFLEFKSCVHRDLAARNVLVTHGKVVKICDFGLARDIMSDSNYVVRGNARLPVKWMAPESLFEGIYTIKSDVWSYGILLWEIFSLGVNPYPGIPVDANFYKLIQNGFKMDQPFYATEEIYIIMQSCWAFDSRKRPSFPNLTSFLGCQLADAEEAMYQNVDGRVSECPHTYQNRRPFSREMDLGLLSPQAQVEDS
# HIPK4 (human) = HIPK4 (human) (UniProt Q8NE63)
# IKBKB (human) = IKBKB (human) (UniProt O14920)
# INSRR (human) = INSRR (human) (UniProt P14616)
# LYN (human) = LYN (human) (UniProt P07948)
# Sequence of LYN (human) (P07948 whole entry, looked up): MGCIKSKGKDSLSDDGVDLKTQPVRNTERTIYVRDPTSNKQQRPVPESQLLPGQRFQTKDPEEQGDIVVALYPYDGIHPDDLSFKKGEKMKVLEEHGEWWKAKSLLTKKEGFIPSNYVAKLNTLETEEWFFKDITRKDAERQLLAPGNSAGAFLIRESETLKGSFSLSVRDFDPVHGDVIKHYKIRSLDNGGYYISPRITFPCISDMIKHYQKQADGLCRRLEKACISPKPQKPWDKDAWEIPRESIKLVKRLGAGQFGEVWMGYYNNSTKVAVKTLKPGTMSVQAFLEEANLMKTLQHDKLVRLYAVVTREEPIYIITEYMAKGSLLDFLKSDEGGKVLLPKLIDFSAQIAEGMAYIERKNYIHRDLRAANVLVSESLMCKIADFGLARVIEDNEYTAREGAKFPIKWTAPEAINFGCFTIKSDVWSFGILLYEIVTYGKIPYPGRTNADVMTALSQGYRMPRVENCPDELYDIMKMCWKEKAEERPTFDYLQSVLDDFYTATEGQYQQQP
# MAPK11 (human) = MAPK11 (human) (UniProt Q15759)
# Sequence of MAPK11 (human) (Q15759 whole entry, looked up): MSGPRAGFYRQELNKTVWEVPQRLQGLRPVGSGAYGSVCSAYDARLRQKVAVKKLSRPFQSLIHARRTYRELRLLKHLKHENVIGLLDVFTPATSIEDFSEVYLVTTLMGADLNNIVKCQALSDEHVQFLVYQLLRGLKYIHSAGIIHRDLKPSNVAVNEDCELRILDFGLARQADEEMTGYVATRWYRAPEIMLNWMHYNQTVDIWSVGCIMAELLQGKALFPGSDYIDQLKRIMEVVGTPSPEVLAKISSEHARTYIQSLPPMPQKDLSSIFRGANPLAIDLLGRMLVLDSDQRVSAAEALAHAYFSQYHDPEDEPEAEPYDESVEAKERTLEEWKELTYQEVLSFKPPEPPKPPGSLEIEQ
# MAPK3 (human) = MAPK3 (human) (UniProt P27361)
# NEK4 (human) = NEK4 (human) (UniProt P51957)
# NEK7 (human) = NEK7 (human) (UniProt Q8TDX7)
# NUAK1 (human) = NUAK1 (human) (UniProt O60285)
# PAK1 (human) = PAK1 (human) (UniProt Q13153)
# Sequence of PAK1 (human) (Q13153 whole entry, looked up): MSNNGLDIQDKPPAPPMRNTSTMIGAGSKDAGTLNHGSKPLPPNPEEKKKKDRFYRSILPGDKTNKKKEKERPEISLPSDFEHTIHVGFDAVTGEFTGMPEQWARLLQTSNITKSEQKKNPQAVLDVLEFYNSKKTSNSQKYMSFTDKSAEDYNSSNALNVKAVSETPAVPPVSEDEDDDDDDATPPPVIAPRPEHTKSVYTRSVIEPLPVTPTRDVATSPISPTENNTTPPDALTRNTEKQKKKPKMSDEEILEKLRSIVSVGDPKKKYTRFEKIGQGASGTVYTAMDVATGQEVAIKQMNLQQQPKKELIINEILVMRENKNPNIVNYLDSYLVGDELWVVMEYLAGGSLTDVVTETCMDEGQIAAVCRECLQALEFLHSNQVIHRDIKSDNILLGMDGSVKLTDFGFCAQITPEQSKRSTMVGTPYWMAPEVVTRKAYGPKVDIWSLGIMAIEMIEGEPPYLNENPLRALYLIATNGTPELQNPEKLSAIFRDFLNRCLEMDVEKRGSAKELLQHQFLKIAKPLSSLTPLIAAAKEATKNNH
# PAK6 (human) = PAK6 (human) (UniProt Q9NQU5)
# PLK3 (human) = PLK3 (human) (UniProt Q9H4B4)
# PRKAA1 (human) = PRKAA1 (human) (UniProt Q13131)
# PRKCA (human) = PRKCA (human) (UniProt P17252)
# PRKCI (human) = PRKCI (human) (UniProt P41743)
# PRKG2 (human) = PRKG2 (human) (UniProt Q13237)
# PRKX (human) = PRKX (human) (UniProt P51817)
# PTK6 (human) = PTK6 (human) (UniProt Q13882)
# SGK2 (human) = SGK2 (human) (UniProt Q9HBY8)
# Sequence of SGK2 (human) (Q9HBY8 whole entry, looked up): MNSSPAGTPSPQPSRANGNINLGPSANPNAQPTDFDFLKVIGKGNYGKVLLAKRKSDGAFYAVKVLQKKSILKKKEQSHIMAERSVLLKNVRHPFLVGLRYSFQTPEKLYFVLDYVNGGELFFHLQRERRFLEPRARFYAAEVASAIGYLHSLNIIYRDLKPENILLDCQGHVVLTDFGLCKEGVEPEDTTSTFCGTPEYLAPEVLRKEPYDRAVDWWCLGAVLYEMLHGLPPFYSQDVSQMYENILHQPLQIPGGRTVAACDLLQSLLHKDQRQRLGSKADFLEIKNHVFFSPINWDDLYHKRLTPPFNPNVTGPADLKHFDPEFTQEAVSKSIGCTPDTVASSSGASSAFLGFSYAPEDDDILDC
# SIK1 (human) = SIK1 (human) (UniProt P57059)
# Sequence of SIK1 (human) (P57059 whole entry, looked up): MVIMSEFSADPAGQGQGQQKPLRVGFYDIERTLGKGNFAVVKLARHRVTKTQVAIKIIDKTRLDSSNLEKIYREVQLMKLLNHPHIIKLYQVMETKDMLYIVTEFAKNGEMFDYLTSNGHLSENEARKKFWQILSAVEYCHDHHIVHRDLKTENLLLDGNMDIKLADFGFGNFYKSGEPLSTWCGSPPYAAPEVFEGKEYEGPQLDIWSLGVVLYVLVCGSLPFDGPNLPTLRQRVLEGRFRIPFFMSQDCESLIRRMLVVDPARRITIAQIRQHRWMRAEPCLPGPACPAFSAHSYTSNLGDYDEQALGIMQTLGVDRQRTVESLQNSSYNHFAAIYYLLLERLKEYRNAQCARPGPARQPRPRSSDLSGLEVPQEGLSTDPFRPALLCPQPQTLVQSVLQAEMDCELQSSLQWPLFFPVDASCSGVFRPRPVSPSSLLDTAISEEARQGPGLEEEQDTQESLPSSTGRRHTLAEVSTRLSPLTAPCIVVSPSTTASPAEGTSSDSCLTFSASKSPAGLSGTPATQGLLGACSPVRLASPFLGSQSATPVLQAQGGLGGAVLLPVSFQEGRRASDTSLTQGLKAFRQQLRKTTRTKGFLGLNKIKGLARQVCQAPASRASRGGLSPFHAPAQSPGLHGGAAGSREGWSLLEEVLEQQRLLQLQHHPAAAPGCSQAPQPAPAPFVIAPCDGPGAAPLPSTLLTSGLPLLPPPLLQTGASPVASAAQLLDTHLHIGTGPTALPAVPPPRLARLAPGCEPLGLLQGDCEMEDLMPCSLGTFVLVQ
# TSSK2 (human) = TSSK2 (human) (UniProt Q96PF2)
# Sequence of TSSK2 (human) (Q96PF2 whole entry, looked up): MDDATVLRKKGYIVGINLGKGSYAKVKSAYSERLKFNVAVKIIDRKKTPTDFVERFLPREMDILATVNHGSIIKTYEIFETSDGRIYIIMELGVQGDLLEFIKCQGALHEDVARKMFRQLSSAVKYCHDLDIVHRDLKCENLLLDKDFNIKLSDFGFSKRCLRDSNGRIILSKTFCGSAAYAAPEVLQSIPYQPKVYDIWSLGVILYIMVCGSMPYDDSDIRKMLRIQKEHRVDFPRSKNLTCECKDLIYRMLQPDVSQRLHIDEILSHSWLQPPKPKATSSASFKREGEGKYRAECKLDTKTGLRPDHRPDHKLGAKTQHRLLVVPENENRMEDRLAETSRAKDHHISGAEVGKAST
# TYK2 JH1 JH2 (human) = TYK2 JH1 JH2 (human) (UniProt P29597)
structure (smiles),measurement,setting,value
Cc1ccc(Nc2nccc(N(C)c3ccc4c(C)n(C)nc4c3)n2)cc1S(N)(=O)=O,inhibition,AURKC (human); compound 0.02 µM,-0.4%
same,inhibition,AURKC (human); compound 0.2 µM,21.5%
same,inhibition,CAMK1D (human); compound 0.02 µM,-0.2%
same,inhibition,CAMK1D (human); compound 0.2 µM,2.9%
same,inhibition,CDK4 (human),13.2%
same,inhibition,CHEK2 (human); compound 0.02 µM,4.1%
same,inhibition,CHEK2 (human); compound 0.2 µM,4.1%
same,inhibition,CLK1 (human); compound 0.02 µM,-4.3%
same,inhibition,CLK1 (human); compound 0.2 µM,6.6%
same,inhibition,CSNK1D (human); compound 0.02 µM,-1.8% and -2.9%
same,inhibition,CSNK1D (human); compound 0.2 µM,-2.9% and -3.3%
same,inhibition,FLT3 (human); compound 0.02 µM,24.7%
same,inhibition,FLT3 (human); compound 0.2 µM,69.9%
same,inhibition,HIPK4 (human); compound 0.02 µM,6.8%
same,inhibition,HIPK4 (human); compound 0.2 µM,12.3%
same,inhibition,IKBKB (human); compound 0.02 µM,-3.7%
same,inhibition,IKBKB (human); compound 0.2 µM,-2.6%
same,inhibition,INSRR (human); compound 0.02 µM,0.1%
same,inhibition,INSRR (human); compound 0.2 µM,0.3%
same,inhibition,LYN (human); compound 0.02 µM,16.6% and 20.8%
same,inhibition,LYN (human); compound 0.2 µM,62.4% and 63.7%
same,inhibition,MAPK11 (human); compound 0.02 µM,-6.7%
same,inhibition,MAPK11 (human); compound 0.2 µM,0.9%
same,inhibition,MAPK3 (human); compound 0.02 µM,-5%
same,inhibition,MAPK3 (human); compound 0.2 µM,-2.7%
same,inhibition,NEK4 (human); compound 0.02 µM,-3.5%
same,inhibition,NEK4 (human); compound 0.2 µM,-0.8%
same,inhibition,NEK7 (human); compound 0.02 µM,-2.9%
same,inhibition,NEK7 (human); compound 0.2 µM,0%
same,inhibition,NUAK1 (human); compound 0.02 µM,-7.8%
same,inhibition,NUAK1 (human); compound 0.2 µM,42%
same,inhibition,PAK1 (human); compound 0.02 µM,-3.6%
same,inhibition,PAK1 (human); compound 0.2 µM,1%
same,inhibition,PAK6 (human); compound 0.02 µM,-5.8%
same,inhibition,PAK6 (human); compound 0.2 µM,-5.8%
same,inhibition,PLK3 (human); compound 0.02 µM,5.4%
same,inhibition,PLK3 (human); compound 0.2 µM,5.7%
same,inhibition,PRKAA1 (human); compound 0.02 µM,8%
same,inhibition,PRKAA1 (human); compound 0.2 µM,-10.1%
same,inhibition,PRKCA (human); compound 0.02 µM,-0.8%
same,inhibition,PRKCA (human); compound 0.2 µM,-1%
same,inhibition,PRKCI (human); compound 0.02 µM,3.4%
same,inhibition,PRKCI (human); compound 0.2 µM,2.1%
same,inhibition,PRKG2 (human); compound 0.02 µM,-2.3%
same,inhibition,PRKG2 (human); compound 0.2 µM,-2.6%
same,inhibition,PRKX (human); compound 0.02 µM,-0.6%
same,inhibition,PRKX (human); compound 0.2 µM,0.8%
same,inhibition,PTK6 (human); compound 0.02 µM,2.5%
same,inhibition,PTK6 (human); compound 0.2 µM,26.2%
same,inhibition,SGK2 (human); compound 0.02 µM,5.5%
same,inhibition,SGK2 (human); compound 0.2 µM,-0.1%
same,inhibition,SIK1 (human); compound 0.02 µM,-3%
same,inhibition,SIK1 (human); compound 0.2 µM,0%
same,inhibition,TSSK2 (human); compound 0.02 µM,-4.3%
same,inhibition,TSSK2 (human); compound 0.2 µM,-2.4%
same,inhibition,TYK2 JH1 JH2 (human); compound 0.02 µM,3.7%
same,inhibition,TYK2 JH1 JH2 (human); compound 0.2 µM,7.2%
